Data reported in ChEMBL document CHEMBL1144878, “N-(omega-(4-(2-methoxyphenyl)piperazin-1-yl)alkyl)carboxamides as dopamine D2 and D3 receptor ligands” (J Med Chem, 2003).

Key:
[1] = biological target: D(2) dopamine receptor (Homo sapiens, UniProt P14416); test: biochemical
Description: Binding affinity for human dopamine receptor D2 by displacing [125I]iodosulpiride expressed in CHO cells

[2] = biological target: T1, D(3) dopamine receptor (Homo sapiens, UniProt P35462); test: biochemical
Target sequence in this assay (P35462 whole entry): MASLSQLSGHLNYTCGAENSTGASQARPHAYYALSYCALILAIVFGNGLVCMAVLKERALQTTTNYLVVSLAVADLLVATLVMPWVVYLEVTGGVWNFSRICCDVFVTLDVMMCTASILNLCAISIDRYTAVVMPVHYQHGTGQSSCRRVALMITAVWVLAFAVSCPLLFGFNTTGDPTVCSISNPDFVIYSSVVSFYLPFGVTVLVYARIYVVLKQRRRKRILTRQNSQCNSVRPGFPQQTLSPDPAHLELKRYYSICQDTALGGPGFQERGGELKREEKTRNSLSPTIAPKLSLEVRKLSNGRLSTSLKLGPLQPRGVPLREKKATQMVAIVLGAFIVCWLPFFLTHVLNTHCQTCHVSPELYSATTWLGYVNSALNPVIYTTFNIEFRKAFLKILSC
Description: Binding affinity for human dopamine receptor D3 by displacing [125I]iodosulpiride expressed in CHO cells

[3] = biological target: T1, D(3) dopamine receptor; test: Effective concentration for Dopamine receptor D3 was determined; type: functional
Target sequence in this assay (P35462 whole entry, looked up): as the sequence (P35462 whole entry) above

[4] = test system: D(3) dopamine receptor (Homo sapiens); test: Intrinsic activity for Dopamine receptor D3 was determined
[5] = biological target: D(3) dopamine receptor (Homo sapiens); test: Effective concentration for Dopamine receptor D3 was determined

D(2) dopamine receptor, sequence (P14416 whole entry): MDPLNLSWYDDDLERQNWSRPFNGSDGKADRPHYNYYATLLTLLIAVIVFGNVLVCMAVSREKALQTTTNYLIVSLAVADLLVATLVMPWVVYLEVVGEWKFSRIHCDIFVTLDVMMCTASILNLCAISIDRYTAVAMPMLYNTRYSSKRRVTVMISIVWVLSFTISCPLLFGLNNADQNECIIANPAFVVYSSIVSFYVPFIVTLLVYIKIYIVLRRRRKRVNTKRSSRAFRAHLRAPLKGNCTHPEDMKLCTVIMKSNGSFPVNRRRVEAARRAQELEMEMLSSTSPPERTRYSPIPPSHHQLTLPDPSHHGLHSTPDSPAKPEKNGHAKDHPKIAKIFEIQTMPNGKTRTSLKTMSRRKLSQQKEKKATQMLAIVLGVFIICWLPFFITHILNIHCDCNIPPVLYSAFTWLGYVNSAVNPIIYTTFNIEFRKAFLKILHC

Structure (SMILES) | Ki [1] | Ki [2] | EC50 [3] | Intrinsic activity [4] | EC50 [5]
COc1ccccc1N1CCN(CCCCNC(=O)/C=C/c2cccc(I)c2)CC1 | 161 nM | 1.2 nM |  |  | 
COc1ccccc1N1CCN(CCCCN2C(=O)c3cccc4cccc(c34)C2=O)CC1 | 40 nM | 29 nM |  |  | 
COc1ccccc1N1CCN(CCCCNC(=O)c2cc3ccccc3cn2)CC1 | 27.5 nM | 1.48 nM | 2.5 nM |  | 
COc1ccccc1N1CCN(CCCCNC(=O)c2ccc3ccccc3n2)CC1 |  | 6.6 nM |  |  | 
COc1ccc2cc([C@H](C)C(=O)NCCCN3CCN(c4ccccc4OC)CC3)ccc2c1 | 94.6 nM | 262 nM |  |  | 
COc1ccccc1N1CCN(CCCCNC(=O)/C=C/c2cccc(Oc3ccccc3)c2)CC1 | 114 nM | 19.5 nM |  |  | 
COc1ccccc1N1CCN(CCCCNC(=O)/C=C/c2ccc(Oc3ccccc3)cc2)CC1 | 65.2 nM | 10.1 nM |  |  | 
COc1ccccc1N1CCN(CCCCNC(=O)/C=C/c2ccco2)CC1 | 11.1 nM | 0.6 nM |  |  | 
COc1ccccc1N1CCN(CCCCNC(=O)c2ccc(Cl)cc2)CC1 | 19.5 nM | 0.5 nM |  |  | 
COc1ccccc1N1CCN(CCCCNC(=O)/C=C/c2cccnc2)CC1 | 14.5 nM | 0.5 nM |  |  | 
COc1ccccc1N1CCN(CCCCNC(=O)C2CC2c2ccccc2)CC1 (centres undefined) | 81 nM | 15.5 nM |  |  | 
COc1ccccc1N1CCN(CCCCNC(=O)/C=C/c2ccc(C=O)cc2)CC1 | 11.5 nM | 0.73 nM |  |  | 
COc1ccccc1N1CCN(CCCCNC(=O)c2sc3ccccc3c2Cl)CC1 | 71.9 nM | 6.7 nM |  |  | 
COc1ccccc1N1CCN(CCCCNC(=O)/C=C/c2ccc(Cl)c(Cl)c2)CC1 | 23 nM | 1.31 nM |  |  | 
COc1ccccc1N1CCN(CCCCNC(=O)/C=C/c2cccc(Cl)c2)CC1 | 20 nM | 0.46 nM |  |  | 
COc1ccccc1N1CCN(CCCCNC(=O)/C=C/c2ccccc2Cl)CC1 | 15 nM | 0.52 nM |  |  | 
COc1ccccc1N1CCN(CCCCNC(=O)c2coc3ccccc3c2=O)CC1 | 47 nM | 3.3 nM |  |  | 
COc1ccccc1N1CCN(CCCCN2C(=O)c3ccccc3C2=O)CC1 | 50 nM | 38 nM |  |  | 
COc1ccccc1N1CCN(CCCCNC(=O)c2cccc3c2-c2ccccc2C3=O)CC1 | 18 nM | 2.96 nM |  |  | 
COc1ccccc1N1CCN(Cc2ccc(CNC(=O)c3ccc4ccccc4c3)cc2)CC1 | 200 nM | 40 nM |  |  | 
COc1ccccc1N1CCN(CCCCNC(=O)/C=C/c2ccc([N+](=O)[O-])cc2)CC1 | 14 nM | 0.74 nM |  |  | 
COc1ccccc1N1CCN(Cc2ccccc2CNC(=O)/C=C/c2ccccc2)CC1 | 18 nM | 325 nM |  |  | 
COc1ccccc1N1CCN(CCCCNC(=O)/C=C/c2cc(I)c(OC)c(OC)c2)CC1 | 38.5 nM | 14.9 nM |  |  | 
COc1ccccc1N1CCN(CCCCNC(=O)C2(c3ccc(Cl)cc3)CCCC2)CC1 | 56 nM | 42 nM |  |  | 

Structure (SMILES) | Ki [1] | Ki [2] | EC50 [3] | Intrinsic activity [4] | EC50 [5]
COc1ccccc1N1CCN(CCCCNC(=O)c2ccc(C(C)=O)cc2)CC1 | 17.5 nM | 1 nM |  |  | 
COc1ccccc1N1CCN(Cc2cccc(CNC(=O)c3ccc4ccccc4c3)c2)CC1 | 45 nM | 100 nM |  |  | 
COc1ccccc1N1CCN(CCCCNC(=O)/C=C/c2ccc3c(c2)OCO3)CC1 | 10.3 nM | 1 nM |  |  | 
COc1ccccc1N1CCN(CCCCNC(=O)/C=C/c2ccc(/C=C/C(=O)NCCCCN3CCN(c4ccccc4OC)CC3)cc2)CC1 | 7.2 nM | 3.6 nM |  |  | 
COc1ccccc1N1CCN(CCCCNC(=O)/C=C/c2ccc(Cl)cc2)CC1 | 22.6 nM | 0.44 nM | 10 nM |  | 
COc1ccccc1N1CCN(CCCCNC(=O)/C=C/c2ccccc2I)CC1 | 63 nM | 0.75 nM |  |  | 
COc1ccccc1N1CCN(Cc2ccccc2CNC(=O)c2ccc3ccccc3c2)CC1 | 28.4 nM | 750 nM |  |  | 
COc1ccccc1N1CCN(C2CC3CC(NC4CC5CC(N6CCN(c7ccccc7OC)CC6)CC5C4)CC3C2)CC1 (centres undefined) | 103 nM | 358 nM |  |  | 
COc1ccccc1N1CCN(CCCCNC(=O)c2ccc(I)cc2)CC1 | 146 nM | 3.9 nM |  | 0.5 | 1.2 nM
COc1ccccc1N1CCN(CCCN2C(=O)c3ccccc3C2=O)CC1 | 300 nM | 560 nM |  |  | 
COc1ccccc1N1CCN(CCCCNC(=O)/C=C/c2cccs2)CC1 | 9.5 nM | 0.59 nM |  |  | 
COc1ccccc1N1CCN(CCCCNC(=O)c2ccccc2I)CC1 | 15.2 nM | 7.8 nM |  |  | 
COc1ccccc1N1CCN(CCCCNC(=O)/C=C/c2ccc(OCc3ccccc3)cc2)CC1 | 32 nM | 19.5 nM |  |  | 
COc1ccccc1/C=C/C(=O)NCCCCN1CCN(c2ccccc2OC)CC1 | 14 nM | 0.56 nM |  |  | 
COc1ccccc1N1CCN(CCCCNC(=O)/C=C/c2ccccc2)CC1 | 13.5 nM | 0.33 nM |  |  | 
COc1ccccc1N1CCN(CCCCNC(=O)/C=C/c2ccc(-c3ccccc3)cc2)CC1 | 37 nM | 16 nM |  |  | 
COc1ccccc1N1CCN(CCCCNC(=O)c2ccc(-c3ccc(Cl)cc3)o2)CC1 | 200 nM | 6.3 nM |  |  | 
COc1ccccc1N1CCN(CCCCNC(=O)/C=C/c2ccc(C#N)cc2)CC1 | 10 nM | 0.46 nM |  |  | 
COc1ccccc1N1CCN(CCCCNC(=O)c2ccc(C(=O)c3ccccc3)cc2)CC1 | 63 nM | 2.5 nM |  |  | 
COc1ccccc1N1CCN(CCCCNC(=O)c2nccc3ccccc23)CC1 | 20.9 nM | 9.62 nM |  |  | 
COc1ccccc1N1CCN(C2CC3CC(NC(=O)c4ccc5ccccc5c4)CC3C2)CC1 (centres undefined) | 178 nM | 37.2 nM |  |  | 
COc1ccccc1N1CCN(CCCCNC(=O)c2cc3ccccc3oc2=O)CC1 | 23 nM | 1.8 nM |  |  | 
COc1ccccc1N1CCN(C2CC3CC(N4CCN(c5ccccc5OC)CC4)CC3C2)CC1 (centres undefined) | 630 nM | 700 nM |  |  | 
COc1ccccc1N1CCN(CCCNC(=O)Cc2ccc3ccccc3c2)CC1 | 56 nM | 140 nM |  |  | 

Structure (SMILES) | Ki [1] | Ki [2] | EC50 [3] | Intrinsic activity [4] | EC50 [5]
COc1ccccc1N1CCN(CCCNC(=O)c2cccc(I)c2)CC1 | 235 nM | 300 nM |  |  | 
COc1ccccc1N1CCN(CCCCNC(=O)c2ccc(-c3ccccc3)cc2)CC1 |  | 2.85 nM |  |  | 
COc1ccccc1N1CCN(CCCCNC(=O)/C=C/c2ccsc2)CC1 | 13 nM | 0.64 nM |  |  | 
COc1ccccc1N1CCN(CCCCNC(=O)/C=C/c2ccc(F)cc2)CC1 | 20.7 nM | 0.69 nM |  |  | 
COc1ccccc1N1CCN(CCCCNC(=O)/C=C/c2ccc(C(F)(F)F)cc2)CC1 | 36.8 nM | 2.14 nM |  |  | 
COc1ccccc1N1CCN(CCCCNC(=O)/C=C/c2cccc3c2OCO3)CC1 | 8 nM | 0.55 nM |  |  | 
COc1ccccc1N1CCN(CCCCN2C(=O)c3cc4ccccc4cc3C2=O)CC1 | 145 nM | 23.3 nM |  |  | 
COc1ccccc1N1CCN(CCCCNC(=O)c2ccc(C(C)(C)C)cc2)CC1 | 26.5 nM | 7.99 nM |  |  | 
COc1ccccc1N1CCN(CCCCNC(=O)/C=C/c2ccc(Br)cc2)CC1 | 23.7 nM | 0.43 nM |  |  | 
COc1ccccc1N1CCN(CCCNC(=O)Cc2cccc3ccccc23)CC1 | 44 nM | 108 nM |  |  | 
COc1ccccc1N1CCN(CCCCNC(=O)/C=C/c2ccc(C(C)(C)C)cc2)CC1 | 128 nM | 10.2 nM |  |  | 
COc1ccccc1N1CCN(CCCCNC(=O)/C=C/C=C/c2ccccc2)CC1 | 19 nM | 1.5 nM |  |  | 
COc1ccccc1N1CCN(CCCCNC(=O)/C=C/c2ccc(I)cc2)CC1 | 76.4 nM | 0.5 nM |  |  | 
COc1ccc(/C=C/C(=O)NCCCCN2CCN(c3ccccc3OC)CC2)cc1 | 12 nM | 0.38 nM |  |  | 
COc1ccccc1N1CCN(CCCCN2C(=O)C=C(c3ccccc3)C2=O)CC1 | 330 nM | 320 nM |  |  | 
COc1ccccc1N1CCN(CCCCNC(=O)/C=C/c2ccc3ccccc3c2)CC1 | 32 nM | 0.68 nM |  |  | 
COc1ccccc1N1CCN(CCCCNC(=O)CCc2ccccc2)CC1 | 48.7 nM | 4.8 nM |  |  | 
COc1ccccc1N1CCN(CCCCNC(=O)/C=C/c2cccc(C(F)(F)F)c2)CC1 | 50.2 nM | 4.1 nM |  |  | 
COc1ccccc1N1CCN(CCCNC(=O)c2ccc(I)cc2)CC1 | 117 nM | 396 nM |  |  | 
COc1ccccc1N1CCN(CCCCNC(=O)Cc2ccc3ccccc3c2)CC1 | 35 nM | 32 nM |  |  | 
COc1ccccc1N1CCN(CCCCNC(=O)c2cccc(I)c2)CC1 | 68 nM | 9.2 nM |  |  | 
COc1ccccc1N1CCN(CCCNC(=O)c2ccccc2I)CC1 | 126 nM | 213 nM |  |  | 
COc1ccccc1N1CCN(CCCCNC(=O)/C=C/c2ccc(Cl)cc2Cl)CC1 | 21 nM | 1.28 nM |  |  | 
